Measured values taken from US20260183411A1, “TARGETING SORTILIN” (priority 2024, published 2026).
Bridges are numbered along the chain shown (N, C = ends). Where no end group is shown, it is not given here. [ ]: non-standard residue; d: D form. conjugation handle = not defined here; tBuAla = CC(C)(C)C[C@H](N)C(=O)O; Tle = CC(C)(C)[C@H](N)C(=O)O; Nle = CCCC[C@H](N)C(=O)O

How the values were obtained:
[1] = tested on: housekeeping gene mRNA; test: Mouse CNS delivery, intrathecal, 7-day (RT-qPCR); type: in vivo; settings: IT dosing
Description: These conjugates were administered to C57BL/6 mice intrathecally (IT), by injection into the spinal canal, for 7 days at 150 μg of siRNA. The delivery efficacy of the various peptide conjugates was measured by measuring the amount of the housekeeping gene mRNA remaining in tissue samples at the end of the 7-day dosing regimen via RT-qPCR of samples from various parts of the mouse CNS: lumbar spinal cord (LSC; FIG. 24A), brainstem (BS; FIG. 24B), cerebellum (CB; FIG. 24C), frontal cortex (FC; FIG. 24D), somatosensory cortex (SSC; FIG. 24E), hippocampus (HC; FIG. 24F), thalamus (TH;
FIG. 24G), liver (FIG. 24H), and heart (FIG. 24I). 7 days post-injection mice were sacrificed, and tissues collected (brain, spinal cord, heart, liver). Tissues were flash frozen and prepared for RT-qPCR detection of target housekeeping gene mRNA knockdown (quantified below in Table 19). Furthermore, histological studies were performed in the brain and cervical spinal cord. In situ hybridization using miRNAscope and a probe that binds the housekeeping gene siRNA was used to assess the localization of the SORT1 peptide conjugates in cross sections of the brain and cervical spinal cord.
To characterize the amount of mRNA present in tissue samples following 7 days from mice treated with SORT1 peptide conjugates, control mice were injected with an equivalent volume of artificial cerebrospinal fluid (aCSF) as a comparative negative control.

[2] = tested on: housekeeping gene mRNA; test: Mouse CNS delivery, intracerebroventricular, 14/60-day (RT-qPCR); type: in vivo; settings: for ICV % housekeeping gene knockdown relative to aCSF: 14-day, ICV dosing
Description: The delivery of the SORT1 peptide conjugates was further tested over longer dosing regimens of 14 days and 60 days. […] The delivery of the siRNA-peptide-conjugated was measured at the end of the 14- or 60-day dosing regimen via RT-qPCR of samples from various parts of the mouse CNS: lumbar spinal cord (LSC; FIGS. 25A and 25B), brainstem (BS; FIGS. 25C and 25D), cerebellum (CB; FIGS. 25E and 25F), frontal cortex (FC; FIGS. 26A and 26B), somatosensory cortex (SSC; FIGS. 26C and 26D), hippocampus (HC; FIGS. 26E and 26F), thalamus (TH; FIGS. 27A and 27B), liver (FIGS. 27C and 27D), and heart (FIGS. 27E and 27F). 14- and 60-days post-injection mice were sacrificed, and tissues collected (brain, spinal cord, heart, liver). Tissues were flash frozen and prepared for RT-qPCR detection of target housekeeping gene mRNA knockdown (quantified below in Table 20).

[3] = tested on: housekeeping gene mRNA; test: Rat CNS delivery, intrathecal, 28-day (RT-qPCR); type: in vivo; settings: IT, 900 μg siRNA
Description: SORT1 peptide 3 conjugate was prepared as described above. The SORT1 peptide 3 conjugate or a benchmark lipid were administered to rats intrathecally (IT), by injection into the spinal cord, for 28 days at 900 μg of siRNA. The delivery efficacy of the SORT1 peptide 3 conjugate was measured by measuring the amount of the housekeeping gene mRNA remaining in tissue samples at the end of the 28-day dosing regimen via RT-qPCR of samples from various parts of the rat CNS: lumbar spinal cord (LSC), cervical spinal cord (CSC), brainstem (BS), cerebellum (CB), somatosensory cortex (SSC), frontal cortex (FC), hippocampus (HC), thalamus (TH), liver, and heart. 28 day post-injection rats were sacrificed, and tissues collected (brain, spinal cord, heart, liver). Tissues were flash frozen and prepared for RT-qPCR detection of target housekeeping gene mRNA knockdown.
To characterize the amount of mRNA present in tissue samples from rats treated with SORT1 peptide 3 conjugates following the 28-day dosing regimen, control rats were injected with an equivalent volume of artificial cerebrospinal fluid (aCSF) as a comparative negative control.

[4] = target: T1, rat SORT1 (76-752)-His (rat, UniProt O54861 76-752); test: SPR (Biacore 8K), SORT1 on CM5 chip, unconjugated peptide with conjugation handles as analyte, 1:1 model
T1 construct: range 76-752; Amine-coupled to CM5 chip for SPR
T1 sequence (looked up): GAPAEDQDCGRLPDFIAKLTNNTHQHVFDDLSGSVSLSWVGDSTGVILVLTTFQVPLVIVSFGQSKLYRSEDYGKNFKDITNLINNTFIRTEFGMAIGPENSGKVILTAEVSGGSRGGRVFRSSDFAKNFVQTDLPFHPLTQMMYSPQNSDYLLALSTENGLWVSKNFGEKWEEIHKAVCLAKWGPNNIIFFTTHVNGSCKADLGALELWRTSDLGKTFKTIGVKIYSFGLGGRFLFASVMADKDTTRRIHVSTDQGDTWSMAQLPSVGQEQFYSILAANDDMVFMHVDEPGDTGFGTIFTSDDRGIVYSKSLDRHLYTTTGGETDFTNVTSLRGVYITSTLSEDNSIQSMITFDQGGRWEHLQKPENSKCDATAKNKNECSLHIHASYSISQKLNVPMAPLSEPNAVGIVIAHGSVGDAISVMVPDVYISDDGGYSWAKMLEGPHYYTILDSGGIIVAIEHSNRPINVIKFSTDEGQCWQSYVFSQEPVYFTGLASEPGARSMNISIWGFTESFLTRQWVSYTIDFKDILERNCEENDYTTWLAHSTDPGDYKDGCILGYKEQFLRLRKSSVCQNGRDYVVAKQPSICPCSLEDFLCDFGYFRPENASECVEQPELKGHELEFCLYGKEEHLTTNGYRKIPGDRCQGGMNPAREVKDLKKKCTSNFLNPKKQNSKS
Description: (§1) SPR analysis was performed on Series S CM5 chips (Cytiva) using a Biacore 8K instrument (Cytiva). Sensorgrams were double-referenced by subtracting the response on both a reference flow cell and a blank sample. Human SORT1 (78-755)-His (Acrobiosystems), human SORT1 (78-755)-His(GenScript), mouse SORT1 (76-753)-His (R&D Systems), rat SORT1 (76-752)-His (GenScript), and cyno SORT1 (76-753)-His (GenScript) were diluted to 20-60 μg/mL in 10 mM sodium acetate pH 4.5 buffer and immobilized onto Series S CM5 chips using amine coupling at a flow rate of 10 μL/min for 45-100 s.
(§2) Ten start-up cycles and a blank cycle preceded each analysis run. The runs were performed by sequential injections of analyte (0-20 nM, 3-fold serial dilutions) with a 90 s association and 900 s dissociation at a flow rate of 30 μL/min, followed by two regeneration cycles with 2 M MgCl2 for 90 s at a flow rate of 10 μL/min. […] Five start-up cycles and a blank cycle preceded each analysis run. The runs were performed by sequential injections of analyte (0-25 nM) with a 150 seconds (s) association and 300 s dissociation at a flow rate of 30 μL/min, followed by a regeneration with 2 M MgCl₂ for 200 s at a flow rate of 10 μL/min. The kinetic rate constants (kₐ and kd) and the equilibrium binding constant (Kd) were calculated using a 1:1 kinetic binding model on the Biacore Insight Evaluation Software (Cytiva).
(§3) SPR analysis was performed on Series S CM5 chips (Cytiva) using a Biacore 8K instrument (Cytiva). Sensorgrams were double-referenced by subtracting the response on both a reference flow cell and a blank sample. The SPR analysis was conducted using four different SORT1 species: Human SORT1, Mouse SORT1, Rat SORT1, and Cyno SORT1. The samples were prepared according to the general procedure described above herein. The kinetic rate constants (ka and […]) and the equilibrium binding constant (Kd) were calculated using a 1:1 kinetic binding model on the Biacore Insight Evaluation Software (Cytiva).

[5] = target: T2, cyno SORT1 (76-753)-His (cyno, UniProt A0A2K5VHG2 74-751); test: as above
T2 construct: range 76-753; Amine-coupled to CM5 chip for SPR
T2 sequence: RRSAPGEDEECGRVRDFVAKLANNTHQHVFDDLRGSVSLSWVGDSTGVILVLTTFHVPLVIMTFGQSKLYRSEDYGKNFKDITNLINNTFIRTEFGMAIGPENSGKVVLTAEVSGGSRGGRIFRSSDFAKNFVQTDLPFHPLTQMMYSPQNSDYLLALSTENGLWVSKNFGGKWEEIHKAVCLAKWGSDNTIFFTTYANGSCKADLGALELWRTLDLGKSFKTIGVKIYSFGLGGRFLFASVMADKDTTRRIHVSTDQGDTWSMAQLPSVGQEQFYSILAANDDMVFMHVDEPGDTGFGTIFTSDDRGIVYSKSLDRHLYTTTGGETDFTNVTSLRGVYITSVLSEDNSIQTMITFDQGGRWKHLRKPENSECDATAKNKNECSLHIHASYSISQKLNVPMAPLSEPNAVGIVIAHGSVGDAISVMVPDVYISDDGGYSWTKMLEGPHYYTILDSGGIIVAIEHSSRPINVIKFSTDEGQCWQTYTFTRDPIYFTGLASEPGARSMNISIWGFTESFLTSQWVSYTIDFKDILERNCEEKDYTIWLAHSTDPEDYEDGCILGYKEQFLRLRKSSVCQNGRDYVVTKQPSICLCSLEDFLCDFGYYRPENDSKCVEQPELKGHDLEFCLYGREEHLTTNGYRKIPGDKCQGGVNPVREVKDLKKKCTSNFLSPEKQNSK
Description: as §1, §2, §3

[6] = target: T3, Human SORT1 (78-755)-His (human, UniProt Q99523 78-755); test: as above
T3 construct: range 78-755; Amine-coupled to CM5 chip for SPR; Two suppliers are named (Acrobiosystems, GenScript)
T3 sequence (looked up): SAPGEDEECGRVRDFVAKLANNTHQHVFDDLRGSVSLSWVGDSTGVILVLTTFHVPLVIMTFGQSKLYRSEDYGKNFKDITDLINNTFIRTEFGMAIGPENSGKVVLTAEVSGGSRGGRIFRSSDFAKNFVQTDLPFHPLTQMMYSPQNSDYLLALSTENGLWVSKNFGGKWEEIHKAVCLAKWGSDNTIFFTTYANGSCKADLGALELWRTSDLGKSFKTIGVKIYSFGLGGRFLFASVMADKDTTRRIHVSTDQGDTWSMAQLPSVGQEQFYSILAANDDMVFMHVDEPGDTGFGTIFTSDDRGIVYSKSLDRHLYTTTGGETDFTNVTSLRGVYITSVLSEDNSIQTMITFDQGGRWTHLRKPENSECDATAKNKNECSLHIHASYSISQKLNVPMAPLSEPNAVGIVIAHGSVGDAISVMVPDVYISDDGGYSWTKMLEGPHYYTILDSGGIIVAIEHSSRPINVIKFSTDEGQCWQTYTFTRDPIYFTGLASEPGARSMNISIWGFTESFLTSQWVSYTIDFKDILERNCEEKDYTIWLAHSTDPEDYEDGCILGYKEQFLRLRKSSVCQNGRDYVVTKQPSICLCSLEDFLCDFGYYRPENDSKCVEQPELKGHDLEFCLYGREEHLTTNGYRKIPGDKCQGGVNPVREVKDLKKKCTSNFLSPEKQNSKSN
Description: as §1, §2, §3

## SORT1 peptide 3 conjugate (RWCENKR[Nle]FTCRQ[Tle][tBuAla]; disulfide 3-11 (inferred); not fully specified (residue 6); printed as RWCENKR(Nle)FTCRQ(B13)(F02); also: conjugated via a linker to siRNA targeting a housekeeping gene mRNA, attachment presumably at the introduced Lys)
[1]; BS
  IT % housekeeping gene knockdown relative to aCSF: 77.0%
[1]; CB
  IT % housekeeping gene knockdown relative to aCSF: 53.6%
[1]; FC
  IT % housekeeping gene knockdown relative to aCSF: 50.1%
[1]; HC (deep brain)
  IT % housekeeping gene knockdown relative to aCSF: 66.6%
[1]; Heart
  IT % housekeeping gene knockdown relative to aCSF: 47.0%
[1]; LSC, 150 μg siRNA
  IT % housekeeping gene knockdown relative to aCSF: 94.7%
[1]; Liver
  IT % housekeeping gene knockdown relative to aCSF: 0.0%
[1]; SSC
  IT % housekeeping gene knockdown relative to aCSF: 61.4%
[1]; TH (deep brain)
  IT % housekeeping gene knockdown relative to aCSF: 33.4%
[2]; BS
  ICV % housekeeping gene knockdown relative to aCSF: 79.6%
[2]; CB
  ICV % housekeeping gene knockdown relative to aCSF: 66.6%
[2]; FC
  ICV % housekeeping gene knockdown relative to aCSF: 72.6%
[2]; HC (deep brain)
  ICV % housekeeping gene knockdown relative to aCSF: 72.1%
[2]; Heart
  ICV % housekeeping gene knockdown relative to aCSF: 7.9%
[2]; ICV, after 14 days
  knockdown of the target gene in peripheral tissues (heart and liver) relative to aCSF: No significant knockdown
[2]; LSC, 100 μg siRNA
  ICV % housekeeping gene knockdown relative to aCSF: 84.8%
[2]; Liver
  ICV % housekeeping gene knockdown relative to aCSF: 8.7%
[2]; SSC
  ICV % housekeeping gene knockdown relative to aCSF: 72.6%
[2]; TH (deep brain)
  ICV % housekeeping gene knockdown relative to aCSF: 76.2%
[3]
  housekeeping gene mRNA in the CNS relative to the aCSF control: significantly reduced

B1: SORT1 peptide 3 (w/conjugation handles), unconjugated (peptide)
peptide: RWCENK(conjugation handle)R[Nle]FTCRQ[Tle][tBuAla]
modifications: disulfide 3-11 (inferred); reading uncertain; also: K6 conjugation handle not given here, printed as RWCENKR(Nle)FTCRQ(B13)(F02)
[4]
  Kd: 1.16 nM
[5]
  Kd: 0.191 nM
[6]
  Kd: 0.168 nM
